Laboratory results as given in PubChem BioAssay AID248 (DTP/NCI, 2004).
Values joined by “and” are separate entries in the source; they are usually repeats but may differ in a detail not shown here. Equal values may be shown once. Inconclusive results and toxic doses are left out.

Tested on: L1210 leukemia ip in BDF1 mice, survival T/C
Experiment: NCI In Vivo Anticancer Drug Screen. Data for tumor model L1210 Leukemia (intraperitoneal) in B6D2F1 (BDF1) mice
Conditions: endpoint: mean survival time, higher = longer survival
How it was run: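 Each compound was tested against a transplantable tumor grown in mice. The endpoint was survival, with treated animals benchmarked against vehicle controls as a simple ratio.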

[1] = dose: 100.0 mg/kg/injection, schedule: Q01DX009 (ip), vehicle: Klucel (hydroxypropylcellulose) (HPC)
[2] = dose: 200.0 mg/kg/injection, schedule: Q01DX009 (ip), vehicle: Klucel (hydroxypropylcellulose) (HPC)
[3] = dose: 50.0 mg/kg/injection, schedule: Q01DX009 (ip), vehicle: Klucel (hydroxypropylcellulose) (HPC)

CCCCN(Cc1ccccc1)C(=O)Nc1ccccc1
T/C [1]: 97 % of control
T/C [2]: 111 % of control
T/C (dose: 400.0 mg/kg/injection, schedule: Q01DX009 (ip), vehicle: Klucel (hydroxypropylcellulose) (HPC)): 100 % of control

Cn1c(=O)c2c(nc(C3CC=CCC3)n2C)n(C)c1=O (stereo unspecified)
T/C (dose: 50.0 mg/kg/injection, schedule: Q01DX001 (ip), vehicle: other): 98 % of control

CCN(CC)P(=O)(N1CC1)N1CC1
T/C (dose: 0.75 mg/kg/injection, schedule: Q01DX Z (ip), vehicle: saline): 109 % of control
T/C (dose: 1.15 mg/kg/injection, schedule: Q01DX Z (ip), vehicle: saline): 121 % of control
T/C (dose: 2.0 mg/kg/injection, schedule: Q01DX Z (ip), vehicle: saline): 106 % of control
T/C (dose: 2.6 mg/kg/injection, schedule: Q01DX Z (ip), vehicle: saline): 124 % of control and 215 % of control
T/C (dose: 4.0 mg/kg/injection, schedule: Q01DX Z (ip), vehicle: saline): 151 % of control
T/C (dose: 9.0 mg/kg/injection, schedule: Q01DX Z (ip), vehicle: saline): 213 % of control
T/C (dose: 14.0 mg/kg/injection, schedule: Q01DX Z (ip), vehicle: saline): 88 % of control and 91 % of control

O=C(Nc1ccc(F)cc1)Nc1cccc(C(F)(F)F)c1
T/C [3]: 103 % of control
T/C [1]: 107 % of control
T/C [2]: 92 % of control

CCOP(=O)(OCC)ON=C(Cl)Cl
T/C (dose: 0.78 mg/kg/injection, schedule: Q01DX009 (ip), vehicle: saline): 97 % of control
T/C (dose: 0.78 mg/kg/injection, schedule: Q04DX002 (ip), vehicle: saline): 101 % of control
T/C (dose: 1.56 mg/kg/injection, schedule: Q01DX009 (ip), vehicle: saline): 97 % of control
T/C (dose: 1.56 mg/kg/injection, schedule: Q04DX002 (ip), vehicle: saline): 98 % of control
T/C (dose: 3.12 mg/kg/injection, schedule: Q01DX009 (ip), vehicle: Klucel (hydroxypropylcellulose) (HPC)): 95 % of control
T/C (dose: 3.12 mg/kg/injection, schedule: Q01DX009 (ip), vehicle: saline): 93 % of control
T/C (dose: 3.12 mg/kg/injection, schedule: Q04DX002 (ip), vehicle: saline): 101 % of control and 92 % of control
T/C (dose: 4.6 mg/kg/injection, schedule: Q01DX009 (ip), vehicle: Klucel (hydroxypropylcellulose) (HPC)): 105 % of control
T/C (dose: 7.0 mg/kg/injection, schedule: Q01DX009 (ip), vehicle: Klucel (hydroxypropylcellulose) (HPC)): 96 % of control

O[Si](O)(c1ccccc1)c1ccccc1
T/C (dose: 100.0 mg/kg/injection, schedule: Q04DX002 (ip), vehicle: saline with Tween-80): 92 % of control
T/C (dose: 200.0 mg/kg/injection, schedule: Q04DX002 (ip), vehicle: saline with Tween-80): 87 % of control
T/C (dose: 400.0 mg/kg/injection, schedule: Q04DX002 (ip), vehicle: saline with Tween-80): 92 % of control

O=[N+]([O-])c1ccc(-[n+]2nc(-c3ccccc3)nn2-c2ccc(I)cc2)cc1
T/C (dose: 8.0 mg/kg/injection, schedule: Q01DX015 (ip), vehicle: carboxymethylcellulose (CMC)): 96 % of control
T/C (dose: 16.0 mg/kg/injection, schedule: Q01DX015 (ip), vehicle: carboxymethylcellulose (CMC)): 96 % of control
T/C (dose: 32.0 mg/kg/injection, schedule: Q01DX015 (ip), vehicle: carboxymethylcellulose (CMC)): 103 % of control
T/C (dose: 50.0 mg/kg/injection, schedule: Q01DX001 (ip), vehicle: carboxymethylcellulose (CMC)): 91 % of control
T/C (dose: 64.0 mg/kg/injection, schedule: Q01DX015 (ip), vehicle: carboxymethylcellulose (CMC)): 88 % of control

c1ccc(-n2cc(-c3nc(N4CC4)nc(N4CC4)n3)c3ccccc32)cc1
T/C [3]: 121 % of control
T/C [1]: 103 % of control
T/C (dose: 100.0 mg/kg/injection, schedule: Q04DX003 (ip), vehicle: Klucel (hydroxypropylcellulose) (HPC)): 112 % of control
T/C (dose: 200.0 mg/kg/injection, schedule: Q04DX003 (ip), vehicle: Klucel (hydroxypropylcellulose) (HPC)): 118 % of control

CC1NC(=O)NC1CCCCCC(=O)O (stereo unspecified)
T/C (dose: 50.0 mg/kg/injection, schedule: Q01DX001 (ip), vehicle: Klucel (hydroxypropylcellulose) (HPC)): 98 % of control
T/C (dose: 100.0 mg/kg/injection, schedule: Q01DX001 (ip), vehicle: Klucel (hydroxypropylcellulose) (HPC)): 98 % of control
T/C (dose: 100.0 mg/kg/injection, schedule: Q01DX001 (ip), vehicle: carboxymethylcellulose (CMC)): 97 % of control
T/C (dose: 200.0 mg/kg/injection, schedule: Q01DX001 (ip), vehicle: Klucel (hydroxypropylcellulose) (HPC)): 96 % of control
T/C (dose: 200.0 mg/kg/injection, schedule: Q01DX001 (ip), vehicle: carboxymethylcellulose (CMC)): 98 % of control
T/C (dose: 400.0 mg/kg/injection, schedule: Q01DX001 (ip), vehicle: carboxymethylcellulose (CMC)): 97 % of control
